Laboratory results as given in ChEMBL document CHEMBL1144958 (Bioorg Med Chem Lett, 2003).

Columns and labels:
HEK293 = assay: Binding affinity towards nicotinic acetylcholine receptor alpha7 - 5-hydroxytryptamine 3 receptor was determined in transfected HEK cells (alpha7) using [125I]-alpha-BgTx as radioligand; format: cell-based
[1] = molecular target: Neuronal acetylcholine receptor; alpha4/beta2 (Rattus norvegicus, UniProt P09483+P12390); assay: Binding affinity towards alpha4-beta2 nicotinic receptor was determined in rat brain membrane using [3H]cytisine as radioligand; format: cell membranes
Chain of Neuronal acetylcholine receptor; alpha4/beta2 (P09483 whole entry): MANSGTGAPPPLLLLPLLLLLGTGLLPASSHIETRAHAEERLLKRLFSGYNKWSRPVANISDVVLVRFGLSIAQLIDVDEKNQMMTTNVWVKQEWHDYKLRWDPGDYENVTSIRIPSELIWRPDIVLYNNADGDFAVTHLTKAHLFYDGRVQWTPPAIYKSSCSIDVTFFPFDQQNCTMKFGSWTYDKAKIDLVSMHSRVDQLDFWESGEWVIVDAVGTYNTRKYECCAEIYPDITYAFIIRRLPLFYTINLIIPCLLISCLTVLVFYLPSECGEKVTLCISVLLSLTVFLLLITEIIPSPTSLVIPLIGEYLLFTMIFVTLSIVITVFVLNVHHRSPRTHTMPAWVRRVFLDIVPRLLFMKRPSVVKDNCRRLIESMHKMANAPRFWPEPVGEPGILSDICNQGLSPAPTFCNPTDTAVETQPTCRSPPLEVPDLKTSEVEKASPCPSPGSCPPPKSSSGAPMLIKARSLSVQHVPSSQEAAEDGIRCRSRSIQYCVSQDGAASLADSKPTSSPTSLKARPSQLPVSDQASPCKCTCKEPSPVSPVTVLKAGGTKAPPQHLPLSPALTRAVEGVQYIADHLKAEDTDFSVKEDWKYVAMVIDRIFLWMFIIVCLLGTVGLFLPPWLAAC
Chain of Neuronal acetylcholine receptor; alpha4/beta2 (P12390 whole entry): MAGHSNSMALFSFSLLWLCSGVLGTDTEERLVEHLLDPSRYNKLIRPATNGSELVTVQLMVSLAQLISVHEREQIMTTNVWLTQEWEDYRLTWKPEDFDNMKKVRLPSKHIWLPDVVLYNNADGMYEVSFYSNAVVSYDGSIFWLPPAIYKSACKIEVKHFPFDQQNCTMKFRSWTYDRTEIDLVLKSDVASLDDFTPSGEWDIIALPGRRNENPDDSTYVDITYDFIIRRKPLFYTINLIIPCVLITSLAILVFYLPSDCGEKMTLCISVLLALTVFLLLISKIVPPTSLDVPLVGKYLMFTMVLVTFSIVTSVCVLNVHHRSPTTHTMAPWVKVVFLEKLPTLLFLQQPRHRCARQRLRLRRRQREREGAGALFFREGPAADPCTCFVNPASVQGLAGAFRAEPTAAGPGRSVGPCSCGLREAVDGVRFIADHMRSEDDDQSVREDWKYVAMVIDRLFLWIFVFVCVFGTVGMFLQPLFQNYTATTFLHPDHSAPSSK

Row | SMILES | binding affinity (HEK293) [µM] | Ki [1] [nM]
1 | O=C(CCl)Nc1ccc(C2CC3CCC2N3)cn1 (configuration not stated) | 23 | 16.3
2 | Clc1ccc(C2CC3CCC2N3)cn1 (configuration not stated) | 0.075 | 
3 | Clc1ncc(C2CC3CCC2N3)cn1 (configuration not stated) | 0.76 | 0.31
4 | COC(=O)Nc1ccc(C2CC3CCC2N3)cn1 (configuration not stated) | > 1000 | 8100
